Assays:
[1] = pKa of free rosiglitazone and free pioglitazone; type: physicochemical
[2] = Solubility (complete dissolution) in solvents; type: physicochemical; settings: in words

CN(CCOc1ccc(CC2SC(=O)NC2=O)cc1)c1ccccn1 (racemic) [free rosiglitazone, (±)5-[4-[2-(N-methyl-N-(2-pyridyl)amino)ethoxy]benzyl]thiazolidine-2,4-dione]
pKa1 [1]: 6.8 | pKa2 [1]: 6.1 | water solubility [2]: poorly water-soluble

CCc1ccc(CCOc2ccc(CC3SC(=O)NC3=O)cc2)nc1 (racemic) [free pioglitazone, [(±)5-[[2-(5-ethyl-2-pyridinyl)ethoxyl]phenyl]methyl]-thiazolidine-2,4-dione]
pKa1 [1]: 6.5 | pKa2 [1]: 6.1 | water solubility [2]: poorly water-soluble
